Tests used:
[1] = Chemical stability of L-tyrosine oxidation products (Peaks I and II) of the EPO-H2O2-Br- system; conditions: to acid, peroxide, reductants and nucleophilic compounds; prolonged incubation at 37° C. with H2O2
[2] = test system: eosinophil peroxidase-H2O2—Br− system; test: 3-Bromotyrosine formation in BSA incubated with activated phagocytes (eosinophils); type: cell-based; conditions: BSA with phorbol ester activated cells, plasma levels of bromide
Description: Reactions were initiated by addition of oxidant (H2O2, HOBr, N-bromo or N,N-dibromo amine) and performed in sodium phosphate buffer (pH 7.0) at 37° C. for 60 min. Proteins oxidized in vitro were prepared for analysis by first precipitating and desalting them in a single-phase extraction mixture comprised of H2O:methanol:H2O-saturated diethyl ether (1:3:7, v:v:v) as described in Hazen, S. L., Hsu, F. F., Gaut, J. P., Crowler, J. R. and Heinecke, J. W. “Modification of Proteins and Lipids by Myeloperoxidase-Derived Oxidants” In: Methods of Enzymology, Edited by Lester Packer, Vol. 300, pp. 88-106. Academic Press, Inc., San Diego. 1999, followed by acid hydrolysis in methane sulfonic acid. […]
L-Tyrosine, 3-bromotyrosine and 3,5-dibromotyrosine generated by phagocytes and human tissues were quantified by stable isotope dilution GC/MS in the negative-ion chemical ionization mode. n-Propyl, per heptafluorobutyryl (HFB) derivatives of amino acids were prepared by standard methods and analyzed on a Perkin Elmer TurboMass mass spectrometer equipped with chemical ionization probe. […] 3-Bromotyrosine was monitored as its n-propyl per HFB derivative using two structurally informative fragment ions, m/z 573 (M-HF)^− and m/z 445 (M-CF3CF2CHO)^− and their corresponding isotopically labeled [^13C6] internal standard ions at m/z 579 and 451, respectively. […]

eosinophil peroxidase = test: Ring-bromination of L-tyrosine by isolated EPO at physiological levels of halides; type: biochemical; conditions: molar excess in reaction mixtures
Description: Reactions were initiated by addition of oxidant (H2O2, HOBr, N-bromo or N,N-dibromo amine) and performed in sodium phosphate buffer (pH 7.0) at 37° C. for 60 min. Proteins oxidized in vitro were prepared for analysis by first precipitating and desalting them in a single-phase extraction mixture comprised of H2O:methanol:H2O-saturated diethyl ether (1:3:7, v:v:v) as described in Hazen, S. L., Hsu, F. F., Gaut, J. P., Crowler, J. R. and Heinecke, J. W. “Modification of Proteins and Lipids by Myeloperoxidase-Derived Oxidants” In: Methods of Enzymology, Edited by Lester Packer, Vol. 300, pp. 88-106. Academic Press, Inc., San Diego. 1999, followed by acid hydrolysis in methane sulfonic acid.
Quantitative determination of 3-bromotyrosine and 3,5-dibromotyrosine production from free L-tyrosine was performed utilizing reverse-phase HPLC with a C18 column (Beckman Ultrasphere, 5 μm resin, 4.6×250 mm) equilibrated with solvent A (0.1% trifluoroacetic acid, pH 2.5). […] 3-Bromotyrosine and 3,5-dibromotyrosine were monitored on a diode array detector and quantified at 280 nm employing a standard curve constructed with authentic synthetic standards.
The ability of isolated EPO and MPO to form 3-bromotyrosine and 3,5-dibromotyrosine in the presence of physiological levels of halides was evaluated. […]

Molecule | effect on 3-bromotyrosine production [2] | other results
N[C@@H](Cc1cc(Br)c(O)c(Br)c1)C(=O)O (single isomer, unassigned) [3,5-dibromotyrosine] |  | chemical stability of the product [1]: stable
[N-]=[N+]=[N-].[Na+] [NaN3] | inhibited | 
NCCS(=O)(=O)O [taurine] |  | effect on ring-bromination by EPO (eosinophil peroxidase): augmented
catalase | inhibited | 

From patent publication US20050142626A1, “Diagnostic methods for asthma” (priority 1999, published 2005)
